This is an account of results in ChEMBL document CHEMBL4270497, “Recent advances (2015-2016) in anticancer hybrids” (Eur J Med Chem, 2017).

One test relates to HUVEC. Briefly: Inhibition of VEGF-induced cell migration of HUVEC assessed as wound closure level at cytotoxic IC50 incubated for 24 hrs (reference value: 100%). The class given is functional, Homo sapiens. Also noted: scale not given: the % may be the effect or the level left.
The target of test [1] is Vascular endothelial growth factor receptor 1 (Homo sapiens, UniProt P17948). Briefly: Inhibition of VEGFR1 (unknown origin) using KKKSPGEYVNIEFG substrate and [33P-g-ATP] incubated for 30 mins.
In a further test the test system is LS180. Nature of the test: Inhibition of P-gp in human LS180 cells assessed as reduction in doxorubicin cytotoxic IC50 level at 50 uM by MTT assay. The format is functional. A general note: Formazan colour is commonly taken as a measure of viable cells.

Structures are written as SMILES.

Vascular endothelial growth factor receptor 1, sequence (P17948 whole entry): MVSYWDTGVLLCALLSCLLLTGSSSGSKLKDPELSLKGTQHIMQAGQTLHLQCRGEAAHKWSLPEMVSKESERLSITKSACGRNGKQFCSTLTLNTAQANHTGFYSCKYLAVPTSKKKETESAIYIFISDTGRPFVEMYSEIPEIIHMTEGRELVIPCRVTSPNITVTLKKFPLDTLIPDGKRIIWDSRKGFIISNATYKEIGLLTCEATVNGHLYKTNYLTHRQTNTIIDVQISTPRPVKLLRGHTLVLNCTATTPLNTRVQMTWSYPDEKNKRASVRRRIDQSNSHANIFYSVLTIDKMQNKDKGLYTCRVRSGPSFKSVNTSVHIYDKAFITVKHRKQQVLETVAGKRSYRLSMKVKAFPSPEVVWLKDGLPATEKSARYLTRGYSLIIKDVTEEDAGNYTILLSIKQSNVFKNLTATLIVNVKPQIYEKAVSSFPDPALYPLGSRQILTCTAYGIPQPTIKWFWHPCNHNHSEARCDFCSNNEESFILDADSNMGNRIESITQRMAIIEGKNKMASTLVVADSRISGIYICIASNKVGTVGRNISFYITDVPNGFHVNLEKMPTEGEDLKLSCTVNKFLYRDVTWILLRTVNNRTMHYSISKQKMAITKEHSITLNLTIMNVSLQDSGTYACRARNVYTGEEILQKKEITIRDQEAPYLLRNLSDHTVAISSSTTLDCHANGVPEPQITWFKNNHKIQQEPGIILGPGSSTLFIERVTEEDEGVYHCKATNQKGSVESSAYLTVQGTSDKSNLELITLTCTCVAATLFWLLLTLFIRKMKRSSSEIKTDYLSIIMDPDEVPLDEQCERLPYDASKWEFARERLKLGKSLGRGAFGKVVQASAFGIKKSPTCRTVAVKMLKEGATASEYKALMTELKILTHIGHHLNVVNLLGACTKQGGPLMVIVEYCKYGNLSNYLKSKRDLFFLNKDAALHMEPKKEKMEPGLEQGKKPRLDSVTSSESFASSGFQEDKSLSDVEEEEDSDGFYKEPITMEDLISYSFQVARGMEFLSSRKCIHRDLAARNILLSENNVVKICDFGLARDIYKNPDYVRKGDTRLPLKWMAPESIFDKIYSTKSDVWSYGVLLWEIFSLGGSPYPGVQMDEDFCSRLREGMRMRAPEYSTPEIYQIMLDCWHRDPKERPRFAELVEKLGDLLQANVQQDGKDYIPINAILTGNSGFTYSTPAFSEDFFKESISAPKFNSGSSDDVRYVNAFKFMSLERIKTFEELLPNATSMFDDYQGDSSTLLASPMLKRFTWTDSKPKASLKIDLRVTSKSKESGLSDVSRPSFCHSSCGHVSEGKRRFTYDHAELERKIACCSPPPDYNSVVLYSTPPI

Take `O=C(Nc1ccc(F)cc1)c1sccc1Nc1cccc2c1OCO2`: the Activity with HUVEC came out at 20%. In addition, it took 2500 nM to reach half-maximal inhibition in test [1] (IC50). In addition, the “Ratio IC50” value in the test with LS180 came out at 14.

The term IC50 denotes the concentration at which inhibition is half-maximal.
